Laboratory results as given in patent publication US20070185013A1, “Use of chk1 inhibitors to control cell proliferation” (ICOS CORPORATION, priority 2003, published 2007).

Experiments:
H460 tumors = experiment: H3-P staining in H460 tumors after gemcitabine; format: in vivo, rodent
Experimental: (§1) Chem. 271:13197-201. 1996; Goto et al., J Biol Chem. 274:25543-9, 1999). The assay protocol was as follows. Tumors from rodents treated or untreated with Chk1 activator (in the present study, chemotherapy agent) and/or Chk1 inhibitor, were excised and paraffin embedded. The tumors are cut into 6 micron thick slices and mounted on glass slides. […] The slides are then heated to 95° C. in 10 mM sodium citrate for 10 minutes followed by a 20 minute cooling step. The slides are blocked for 30 minutes with Block buffer (20% normal human serum and 2% bovine serum albumin in phosphate buffered saline containing 0.05% Triton X-100 (PBST)). The anti-phospho histone H3 antibody (Upstate Biotech, Cat. #06-570) is diluted 1:200 in the Block buffer and incubated with the slides for one hour. The slides are washed 3 times 5 minutes in PBST. The secondary antibody, donkey anti-rabbit rhodamine (Jackson, cat #711-295-152) was added for 30 minutes. The slides were then washed twice in PBST and […] of […] DAPI (Sigma) in PBS is added and allowed to stain for 30 minutes. The slides were then washed two more times in PBST and mounted with Vectashield (Vector, cat # H-1400). Slides were viewed using fluorescence microscopy. The percentage of cells stained with H3-P antibody relative to total (DAPI stained) cells were quantified using Metamorph software (Universal Imaging Corporation, Version 4.6). […]

137-62 tumors = experiment: H3-P staining in 137-62 tumors after gemcitabine; format: in vivo, rat
Experimental: as §1

Chk1 = Chk1 serine 317 and 345 phosphorylation, Western blot in HT29 cells; format: cell-based, human; conditions: 20 μM gemcitabine for two hours, 22 additional hours
Excerpt: To determine whether an agent is a Chk1 activator, the phosphorylation state of Chk1 can be measured using phospho-specific antibodies to specific phosphorylation sites on Chk1. […] Liu, Q., et al., (2000) Genes Dev. 14, 1448-1459; Zhao, H., et al., (2001) Mol. Cell. Biol. 21, 4129-4139; Lopez-Girona, A., et al., (2001) Proc. Natl. Acad. Sci. U.S.A. 98, 11289-11294; Guo, Z., et al., (2000). Genes Dev. 14, 2745-2756; Gatei, M., et al., (2003) J. Biol. Chem. 278, 14806-14811; Ng C P, et al., J Biol Chem. 2004 Mar. 5; 279(10):8808-19; Wang Y, et al., Natl Acad Sci USA. 2003 Dec. 23; 100(26):15387-92; Stojic L, et al., Genes Dev. 2004 Jun. 1; 18(11):1331-44. These serine sites are phosphorylated by upstream checkpoint kinases, Atm and Atr. Liu, Q., et al., S. J. (2000) Genes Dev. 14, 1448-1459; Zhao, H., et al. (2001) Mol. Cell. Biol. 21, 4129-4139).
The phosphorylation of these sites in response to a candidate Chk1 activator can be monitored by Western blot or immunohistochemistry of tumor cells. […] HT29 cells were treated with 20 μM gemcitabine for two hours. The gemcitabine was washed out of the cell growth media and cells were incubated for 22 additional hours. Protein lysates were prepared and separated by an SDS-polyacrylamide gel electrophoresis. […]

`Nc1ccn([C@@H]2O[C@H](CO)[C@@H](O)C2(F)F)c(=O)n1` [gemcitabine] was tested, and the “time at which cells exited S phase arrest” value (H460 tumors; H460 cells, after gemcitabine) was 48 h, the “time of lowest H3-P staining” value (H460 tumors; H460 tumors treated with gemcitabine) was 12 h and the “time at which cells exited S phase arrest” value (137-62 tumors; 137-62 cells, after gemcitabine) was 24 h. For the same compound, the “time of lowest H3-P staining” value (137-62 tumors; 137-62 tumors treated with gemcitabine) was 12 h and the “phosphorylation of Chk1 serines 317 and 345” value (Chk1) was “results in the phosphorylation of both serines 317 and 345”.
